Columns and labels:
[1] = test system: Trypanosoma brucei rhodesiense; experiment: Antiprotozoal activity against blood stream form of Trypanosoma brucei rhodesiense STIB900 after 72 hrs by alamar blue assay; assay type: functional, organism-based; details: STIB900, 72 h
L6 = experiment: Cytotoxicity against rat L6 cells after 72 hrs by alamar blue assay; assay type: cell-based; details: L6, 72 h
Leishmania donovani = experiment: Antiprotozoal activity against amastigote form of Leishmania donovani MHOM/ET/67/L82 after 72 hrs by alamar blue assay; assay type: functional, organism-based; details: MHOM/ET/67/L82, 72 h
Plasmodium falciparum = experiment: Antiprotozoal activity against erythrocytic form of chloroquine/pyrimethamine-resistant Plasmodium falciparum K1 after 48 hrs by [3H]-hypoxanthine incorporation assay; assay type: functional, organism-based
Trypanosoma cruzi = experiment: Antiprotozoal activity against trypomastigote form of Trypanosoma cruzi Tulahuen C2C4 infected in rat L6 cells after 96 hrs by CPRG/Nonidet-based […]; assay type: functional, organism-based; details: Tulahuen C2C4, L6, 96 h

Structure (SMILES) | IC50 [1] [µM] | IC50 (L6) [µM] | IC50 (Leishmania donovani) [µM] | IC50 (Plasmodium falciparum) [µM] | IC50 (Trypanosoma cruzi) [µM]
Nc1nc(N)nc(Nc2ccc([As]3SCC(CO)S3)cc2)n1 (stereo unspecified) [MELARSOPROL] | 0.015 |  |  |  | 
CC1=C(O)/C(=C/[C@H](C)CCC/C(C)=C/CCc2coc(Cc3ccoc3)c2)OC1=O [IRCININ 1] | 97 | 150 | 31 | 58 | 120
CC1=C(O)/C(=C/[C@H](C)CCC/C(C)=C/CCc2coc(CC3=CCN(CC(=O)O)C3=O)c2)OC1=O | 130 | > 200 | 120 | 95 | 
O=C(Cn1ccnc1[N+](=O)[O-])NCc1ccccc1 [BENZNIDAZOLE] |  |  |  |  | 3.07
CC1=C(O)/C(=C/[C@H](C)CCC/C(C)=C/CCC2=CC(Cc3ccoc3)N(CC(=O)O)C2=O)OC1=O (stereo partly specified) | 130 | > 200 | 95 | > 100 | 
COc1cc([C@@H]2c3cc4c(cc3[C@H](O)[C@H]3COC(=O)[C@H]23)OCO4)cc(OC)c1OC [PODOFILOX] |  | 0.01 |  |  | 
CC1=C(O)/C(=C/[C@H](C)CC/C=C(/C)CCCc2coc(Cc3ccoc3)c2)OC1=O [IRCININ 2] | 65 | 140 | 28 | 56 | 110

Source: ChEMBL document CHEMBL4130402, “Antiprotozoal Linear Furanosesterterpenoids from the Marine Sponge Ircinia oros” (J Nat Prod, 2017)
